Values joined by “and” are separate entries in the source; they are usually repeats but may differ in a detail not shown here. Equal entries are not always repeated. Inconclusive results and toxic doses are left out.
Test system: L1210 leukemia ip in BDF1 mice, survival T/C
Assay: NCI In Vivo Anticancer Drug Screen. Data for tumor model L1210 Leukemia (intraperitoneal) in B6D2F1 (BDF1) mice
Conditions: endpoint: mean survival time, higher = longer survival
In short: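 In this screen, tumor-bearing mice given compound are compared to those given vehicle, and their survival values are reported as a treated-to-control quotient.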

[1] = dose: 100.0 mg/kg/injection, schedule: Q01DX001 (ip), vehicle: saline
[2] = dose: 200.0 mg/kg/injection, schedule: Q01DX001 (ip), vehicle: saline
[3] = dose: 100.0 mg/kg/injection, schedule: Q01DX001 (ip), vehicle: carboxymethylcellulose (CMC)
[4] = dose: 400.0 mg/kg/injection, schedule: Q01DX001 (ip), vehicle: saline
[5] = dose: 100.0 mg/kg/injection, schedule: Q04DX003 (ip), vehicle: saline with Tween-80
[6] = dose: 200.0 mg/kg/injection, schedule: Q04DX003 (ip), vehicle: saline with Tween-80

For `Cc1ccc([P+](Cc2ccccc2)(c2ccccc2)c2ccc(C)cc2)cc1`, the T/C (dose: 15.0 mg/kg/injection, schedule: Q01DX001 (ip), vehicle: saline) was 96 % of control.
In the case of `OCCc1ccc[nH]1`, the T/C (dose: 75.0 mg/kg/injection, schedule: Q01DX001 (ip), vehicle: saline) is reported as 105 % of control, the T/C (dose: 150.0 mg/kg/injection, schedule: Q01DX001 (ip), vehicle: saline) is reported as 105 % of control and the T/C (dose: 300.0 mg/kg/injection, schedule: Q01DX001 (ip), vehicle: saline) is reported as 105 % of control.
For `CC(=O)O[C@H]1CC[C@H]2[C@@H]3CC[C@H]4CC=C(C#N)C[C@]4(C)[C@H]3CC[C@]12C`, the T/C (dose: 50.0 mg/kg/injection, schedule: Q01DX001 (sc), vehicle: steriod suspending solution) was 107 % of control, the T/C (dose: 100.0 mg/kg/injection, schedule: Q01DX001 (sc), vehicle: steriod suspending solution) was 104 % of control and the T/C (dose: 200.0 mg/kg/injection, schedule: Q01DX001 (sc), vehicle: steriod suspending solution) was 102 % of control. The T/C (dose: 400.0 mg/kg/injection, schedule: Q01DX001 (sc), vehicle: steriod suspending solution) was 101 % of control.
`COc1ccc2nc(N=Nc3c(N)nc(N)nc3N)sc2c1` was tested, and the T/C [1] was 96 % of control and the T/C [2] was 105 % of control.
In the case of `CCCCCCNC1=C(c2ccccc2)C(=O)C(NCCCCCC)=C(c2ccccc2)C1=O`, the T/C [3] is reported as 88 % of control, the T/C (dose: 200.0 mg/kg/injection, schedule: Q01DX001 (ip), vehicle: carboxymethylcellulose (CMC)) is reported as 94 % of control and the T/C (dose: 400.0 mg/kg/injection, schedule: Q01DX001 (ip), vehicle: carboxymethylcellulose (CMC)) is reported as 96 % of control.
`NC(N)=NCCCC(N=Cc1ccccc1O)C(=O)O` (configuration not stated) was tested, and the T/C [1] was 96 % of control, the T/C [2] was 102 % of control and the T/C [4] was 95 % of control.
`NC(N)=N/N=C\c1ccc(OCc2ccccc2)cc1` was tested, and the T/C (dose: 15.0 mg/kg/injection, schedule: Q01DX Z (ip), vehicle: saline) was 96 % of control, the T/C (dose: 15.0 mg/kg/injection, schedule: Q01DX Z (oral), vehicle: saline) was 91 % of control and the T/C (dose: 30.0 mg/kg/injection, schedule: Q01DX Z (ip), vehicle: saline) was 102 % of control. For the same molecule, the T/C (dose: 30.0 mg/kg/injection, schedule: Q01DX Z (oral), vehicle: saline) was 94 % of control, the T/C (dose: 60.0 mg/kg/injection, schedule: Q01DX Z (oral), vehicle: saline) was 90 % of control and the T/C (dose: 120.0 mg/kg/injection, schedule: Q01DX010 (oral), vehicle: saline) was 102 % of control. The T/C (dose: 120.0 mg/kg/injection, schedule: Q01DX Z (oral), vehicle: saline) was 89 % of control, the T/C (dose: 240.0 mg/kg/injection, schedule: Q01DX010 (oral), vehicle: saline) was 102 % of control and the T/C (dose: 400.0 mg/kg/injection, schedule: Q01DX010 (oral), vehicle: saline) was 91 % of control.
With `CC12CCC3C(CC=C4CC(O)CCC43C)C1C/C(=C\c1ccccc1)C2=O` (configuration not stated) the T/C (dose: 100.0 mg/kg/injection, schedule: Q01DX001 (ip), vehicle: saline with Tween-80) was 93 % of control, the T/C (dose: 200.0 mg/kg/injection, schedule: Q01DX001 (ip), vehicle: saline with Tween-80) was 93 % of control and the T/C (dose: 400.0 mg/kg/injection, schedule: Q01DX001 (ip), vehicle: saline with Tween-80) was 92 % of control.
In the case of `OC(CCN1CCCCC1)(c1ccccc1)C1CCCC1` (configuration not stated), the T/C (dose: 6.25 mg/kg/injection, schedule: Q01DX009 (ip), vehicle: Klucel (hydroxypropylcellulose) (HPC)) is reported as 114 % of control, the T/C (dose: 12.5 mg/kg/injection, schedule: Q01DX009 (ip), vehicle: Klucel (hydroxypropylcellulose) (HPC)) is reported as 100 % of control and the T/C (dose: 25.0 mg/kg/injection, schedule: Q01DX009 (ip), vehicle: Klucel (hydroxypropylcellulose) (HPC)) is reported as 94 % of control. The T/C (dose: 25.0 mg/kg/injection, schedule: Q04DX003 (ip), vehicle: Klucel (hydroxypropylcellulose) (HPC)) was 100 % of control, the T/C (dose: 50.0 mg/kg/injection, schedule: Q01DX009 (ip), vehicle: Klucel (hydroxypropylcellulose) (HPC)) was 97 % of control and the T/C (dose: 50.0 mg/kg/injection, schedule: Q04DX003 (ip), vehicle: Klucel (hydroxypropylcellulose) (HPC)) was 96 % of control. The T/C (dose: 100.0 mg/kg/injection, schedule: Q01DX009 (ip), vehicle: Klucel (hydroxypropylcellulose) (HPC)) was 97 % of control and the T/C (dose: 100.0 mg/kg/injection, schedule: Q04DX003 (ip), vehicle: Klucel (hydroxypropylcellulose) (HPC)) was 96 % of control.
`Cc1cc(C)c2[nH]c(=O)c(C)c(C)c2c1Br` was tested, and the T/C (dose: 100.0 mg/kg/injection, schedule: Q01DX001 (ip), vehicle: other) was 102 % of control, the T/C (dose: 200.0 mg/kg/injection, schedule: Q01DX001 (ip), vehicle: other) was 94 % of control and the T/C (dose: 400.0 mg/kg/injection, schedule: Q01DX001 (ip), vehicle: other) was 100 % of control.
`COc1cc(C(=O)N(C)C2CCCCC2)cc(OC)c1OC` was tested, and the T/C [5] was 98 % of control, the T/C [6] was 98 % of control and the T/C (dose: 400.0 mg/kg/injection, schedule: Q04DX003 (ip), vehicle: saline with Tween-80) was 102 % of control.
In the case of `CC(O)C(O)C(=O)O` (configuration not stated), the T/C (dose: 25.0 mg/kg/injection, schedule: Q01DX009 (ip), vehicle: saline) is reported as 95 % of control, the T/C (dose: 50.0 mg/kg/injection, schedule: Q01DX009 (ip), vehicle: saline) is reported as 90 % of control and the T/C [1] is reported as 96 % of control. The T/C (dose: 100.0 mg/kg/injection, schedule: Q01DX009 (ip), vehicle: saline) was 95 % of control, the T/C (dose: 100.0 mg/kg/injection, schedule: Q04DX003 (ip), vehicle: saline) was 108 % of control and the T/C [2] was 102 % of control. For the same molecule, the T/C (dose: 200.0 mg/kg/injection, schedule: Q04DX003 (ip), vehicle: saline) was 101 % of control, the T/C [4] was 96 % of control and the T/C (dose: 400.0 mg/kg/injection, schedule: Q04DX003 (ip), vehicle: saline) was 94 % of control.
With `Cc1nc(-c2ccc3ccc4cccnc4c3n2)no1` the T/C (dose: 50.0 mg/kg/injection, schedule: Q04DX003 (ip), vehicle: saline with Tween-80) was 93 % of control and the T/C [6] was 86 % of control.
`ONc1nc(NO)c2[nH]cnc2n1` was tested, and the T/C (dose: 0.25 mg/kg/injection, schedule: Q01DX009 (ip), vehicle: other) was 109 % of control, the T/C (dose: 1.2 mg/kg/injection, schedule: Q01DX009 (ip), vehicle: carboxymethylcellulose (CMC)) was 115 % of control and the T/C (dose: 2.5 mg/kg/injection, schedule: Q01DX009 (ip), vehicle: other) was 165 % of control. The T/C (dose: 3.7 mg/kg/injection, schedule: Q01DX009 (ip), vehicle: carboxymethylcellulose (CMC)) was 150 % of control, the T/C (dose: 5.0 mg/kg/injection, schedule: Q01DX009 (ip), vehicle: other) was 202 % of control and the T/C (dose: 10.0 mg/kg/injection, schedule: Q01DX009 (ip), vehicle: other) was 210 % of control. The T/C (dose: 10.5 mg/kg/injection, schedule: Q01DX009 (ip), vehicle: other) was 203 % of control, the T/C (dose: 18.0 mg/kg/injection, schedule: Q01DX009 (ip), vehicle: other) was 265 % of control and the T/C (dose: 18.7 mg/kg/injection, schedule: Q01DX009 (oral), vehicle: carboxymethylcellulose (CMC)) was 114 % of control. The T/C (dose: 30.0 mg/kg/injection, schedule: Q01DX009 (ip), vehicle: carboxymethylcellulose (CMC)) was 150 % of control, the T/C (dose: 30.0 mg/kg/injection, schedule: Q01DX009 (ip), vehicle: other) was 192 % of control and the T/C (dose: 44.0 mg/kg/injection, schedule: Q01DX001 (ip), vehicle: carboxymethylcellulose (CMC)) was 154 % of control. For the same molecule, the T/C (dose: 60.0 mg/kg/injection, schedule: Q01DX009 (ip), vehicle: carboxymethylcellulose (CMC)) was 150 % of control and 153 % of control, the T/C (dose: 66.0 mg/kg/injection, schedule: Q01DX001 (ip), vehicle: carboxymethylcellulose (CMC)) was 172 % of control and the T/C (dose: 75.0 mg/kg/injection, schedule: Q01DX009 (oral), vehicle: carboxymethylcellulose (CMC)) was 122 % of control. For the same molecule, the T/C [3] was 175 % of control and the T/C (dose: 150.0 mg/kg/injection, schedule: Q01DX001 (ip), vehicle: carboxymethylcellulose (CMC)) was 214 % of control.
`CC1(C)OC2C(C(=O)O)OC(n3cnc4c(N)ncnc43)C2O1` (configuration not stated) was tested, and the T/C (dose: 100.0 mg/kg/injection, schedule: Q01DX005 (ip), vehicle: saline) was 102 % of control and the T/C (dose: 200.0 mg/kg/injection, schedule: Q01DX005 (ip), vehicle: saline) was 104 % of control.
With `N#Cc1cc(Cl)ccc1Cl` the T/C (dose: 100.0 mg/kg/injection, schedule: Q01DX009 (ip), vehicle: gum acacia) was 100 % of control, the T/C (dose: 100.0 mg/kg/injection, schedule: Q04DX003 (ip), vehicle: gum acacia) was 98 % of control and the T/C (dose: 200.0 mg/kg/injection, schedule: Q01DX009 (ip), vehicle: gum acacia) was 103 % of control. For the same molecule, the T/C (dose: 200.0 mg/kg/injection, schedule: Q04DX003 (ip), vehicle: gum acacia) was 95 % of control, the T/C (dose: 400.0 mg/kg/injection, schedule: Q01DX009 (ip), vehicle: gum acacia) was 95 % of control and the T/C (dose: 400.0 mg/kg/injection, schedule: Q04DX003 (ip), vehicle: gum acacia) was 93 % of control.
For `CC(C)=CN1CCCCC1`, the T/C (dose: 50.0 mg/kg/injection, schedule: Q01DX009 (ip), vehicle: saline with Tween-80) was 95 % of control, the T/C (dose: 100.0 mg/kg/injection, schedule: Q01DX009 (ip), vehicle: saline with Tween-80) was 101 % of control and the T/C [5] was 98 % of control. The T/C [6] was 96 % of control.
